Measured values taken from ChEMBL document CHEMBL5465560, “Selectivity Literature for EUbOPEN Chemogenomic Library” (2024).

Experiments:
[1] = molecular target: Protein arginine N-methyltransferase 6 (Homo sapiens, UniProt Q96LA8); assay: Selectivity interaction (Methyltransferase screen (Scintillation proximity assays)) EUB0000255b PRMT6
[2] = molecular target: T1, Serine/threonine-protein kinase tousled-like 1 (Homo sapiens) (UniProt Q9UKI8); assay: Selectivity interaction (KinomeScan (DiscoverX)) EUB0000229b TLK1; conditions: at 10 µM
T1 sequence (whole entry): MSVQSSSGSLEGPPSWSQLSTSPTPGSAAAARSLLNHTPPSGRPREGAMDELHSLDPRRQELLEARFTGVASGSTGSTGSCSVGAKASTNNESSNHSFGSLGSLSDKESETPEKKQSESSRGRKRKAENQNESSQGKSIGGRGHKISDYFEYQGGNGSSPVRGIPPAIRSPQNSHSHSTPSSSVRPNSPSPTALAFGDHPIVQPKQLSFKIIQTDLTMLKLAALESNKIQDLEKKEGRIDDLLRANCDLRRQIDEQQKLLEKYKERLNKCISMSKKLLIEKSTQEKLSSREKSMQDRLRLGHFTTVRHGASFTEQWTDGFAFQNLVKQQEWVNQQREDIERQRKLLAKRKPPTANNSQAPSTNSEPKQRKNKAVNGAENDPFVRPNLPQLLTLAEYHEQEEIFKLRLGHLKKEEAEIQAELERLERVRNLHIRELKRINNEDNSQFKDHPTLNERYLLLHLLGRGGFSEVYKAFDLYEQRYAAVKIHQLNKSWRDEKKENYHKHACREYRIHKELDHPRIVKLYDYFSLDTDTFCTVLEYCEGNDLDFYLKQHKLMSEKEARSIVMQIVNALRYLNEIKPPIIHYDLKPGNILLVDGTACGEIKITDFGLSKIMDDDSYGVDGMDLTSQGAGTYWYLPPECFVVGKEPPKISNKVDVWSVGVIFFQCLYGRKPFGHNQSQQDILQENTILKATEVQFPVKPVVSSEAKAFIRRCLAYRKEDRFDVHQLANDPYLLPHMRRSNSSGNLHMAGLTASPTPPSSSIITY

[3] = molecular target: Casein kinase I isoform gamma-2 (Homo sapiens) (UniProt P78368); assay: Selectivity interaction (KinomeScan (DiscoverX)) EUB0000666a CSNK1G2; conditions: at 10 µM
[4] = molecular target: T2, Serine/threonine-protein kinase 17A (Homo sapiens) (UniProt Q9UEE5); assay: Selectivity interaction (Kinase panel (Invitrogen)) EUB0000639a STK17A; conditions: at 200 nM
T2 sequence (whole entry): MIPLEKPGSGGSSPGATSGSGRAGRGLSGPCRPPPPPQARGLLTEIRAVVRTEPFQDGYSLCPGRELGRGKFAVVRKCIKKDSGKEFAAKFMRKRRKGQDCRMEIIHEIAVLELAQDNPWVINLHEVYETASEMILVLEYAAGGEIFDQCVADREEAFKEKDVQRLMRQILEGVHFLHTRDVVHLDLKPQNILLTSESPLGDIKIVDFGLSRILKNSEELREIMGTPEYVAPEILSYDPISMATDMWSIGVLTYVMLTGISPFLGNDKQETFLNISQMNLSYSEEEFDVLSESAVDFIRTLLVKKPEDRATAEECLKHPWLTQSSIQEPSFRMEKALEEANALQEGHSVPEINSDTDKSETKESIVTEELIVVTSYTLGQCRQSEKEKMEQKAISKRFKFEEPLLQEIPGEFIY

[5] = molecular target: Tyrosine-protein kinase Yes (Homo sapiens) (UniProt P07947); assay: Selectivity interaction (ActivX KiNativ screen (kinase selectivity in THP-1 cell lysates)) EUB0000639a YES1; assay type: subcellular; conditions: lysate
[6] = molecular target: Ribosomal protein S6 kinase alpha-5 (Homo sapiens) (UniProt O75582); assay: Selectivity interaction (KinomeScan (DiscoverX)) EUB0000607a RPS6KA5; conditions: at 10 µM
[7] = molecular target: T3, Serine/threonine-protein kinase Nek1 (Homo sapiens) (UniProt Q96PY6); assay: Selectivity interaction (KinomeScan (DiscoverX)) EUB0000695a NEK1; conditions: at 100 nM
T3 sequence (whole entry): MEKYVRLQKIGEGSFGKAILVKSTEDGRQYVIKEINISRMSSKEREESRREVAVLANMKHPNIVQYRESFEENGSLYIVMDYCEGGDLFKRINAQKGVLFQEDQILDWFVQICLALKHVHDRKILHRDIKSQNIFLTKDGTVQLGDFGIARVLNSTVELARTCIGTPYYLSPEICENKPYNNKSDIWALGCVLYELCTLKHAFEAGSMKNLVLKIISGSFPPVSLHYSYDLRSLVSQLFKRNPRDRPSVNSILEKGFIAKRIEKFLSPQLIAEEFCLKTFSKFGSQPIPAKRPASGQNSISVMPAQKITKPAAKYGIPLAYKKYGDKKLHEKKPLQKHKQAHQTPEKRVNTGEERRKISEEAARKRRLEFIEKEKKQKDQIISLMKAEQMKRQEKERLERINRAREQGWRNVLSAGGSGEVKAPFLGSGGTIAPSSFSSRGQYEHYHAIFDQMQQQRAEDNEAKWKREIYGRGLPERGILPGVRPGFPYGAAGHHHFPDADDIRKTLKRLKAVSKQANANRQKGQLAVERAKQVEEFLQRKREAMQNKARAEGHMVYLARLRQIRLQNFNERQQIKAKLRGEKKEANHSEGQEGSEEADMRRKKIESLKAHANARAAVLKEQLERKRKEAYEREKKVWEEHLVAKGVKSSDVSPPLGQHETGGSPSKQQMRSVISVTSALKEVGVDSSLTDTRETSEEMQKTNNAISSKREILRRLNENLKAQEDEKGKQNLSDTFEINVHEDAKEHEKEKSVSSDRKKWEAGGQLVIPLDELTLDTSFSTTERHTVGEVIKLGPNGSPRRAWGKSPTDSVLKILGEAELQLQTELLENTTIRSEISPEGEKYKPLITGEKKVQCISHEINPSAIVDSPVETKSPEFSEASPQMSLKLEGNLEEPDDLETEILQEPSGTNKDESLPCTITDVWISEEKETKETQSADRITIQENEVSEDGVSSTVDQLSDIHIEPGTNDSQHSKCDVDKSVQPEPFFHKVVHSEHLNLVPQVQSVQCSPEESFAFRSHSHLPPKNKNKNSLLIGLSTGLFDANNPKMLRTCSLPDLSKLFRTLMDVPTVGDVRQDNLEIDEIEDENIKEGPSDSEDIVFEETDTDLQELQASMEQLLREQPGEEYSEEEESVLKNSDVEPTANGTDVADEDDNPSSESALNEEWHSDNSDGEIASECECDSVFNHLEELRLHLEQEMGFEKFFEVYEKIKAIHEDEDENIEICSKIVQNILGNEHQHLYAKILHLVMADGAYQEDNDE

[8] = molecular target: Ribosomal protein S6 kinase alpha-3 (Homo sapiens, UniProt P51812); assay: Selectivity interaction (KinomeScan (DiscoverX)) EUB0000695a RPS6KA3; conditions: at 100 nM
Sequence of Ribosomal protein S6 kinase alpha-3 (P51812 whole entry): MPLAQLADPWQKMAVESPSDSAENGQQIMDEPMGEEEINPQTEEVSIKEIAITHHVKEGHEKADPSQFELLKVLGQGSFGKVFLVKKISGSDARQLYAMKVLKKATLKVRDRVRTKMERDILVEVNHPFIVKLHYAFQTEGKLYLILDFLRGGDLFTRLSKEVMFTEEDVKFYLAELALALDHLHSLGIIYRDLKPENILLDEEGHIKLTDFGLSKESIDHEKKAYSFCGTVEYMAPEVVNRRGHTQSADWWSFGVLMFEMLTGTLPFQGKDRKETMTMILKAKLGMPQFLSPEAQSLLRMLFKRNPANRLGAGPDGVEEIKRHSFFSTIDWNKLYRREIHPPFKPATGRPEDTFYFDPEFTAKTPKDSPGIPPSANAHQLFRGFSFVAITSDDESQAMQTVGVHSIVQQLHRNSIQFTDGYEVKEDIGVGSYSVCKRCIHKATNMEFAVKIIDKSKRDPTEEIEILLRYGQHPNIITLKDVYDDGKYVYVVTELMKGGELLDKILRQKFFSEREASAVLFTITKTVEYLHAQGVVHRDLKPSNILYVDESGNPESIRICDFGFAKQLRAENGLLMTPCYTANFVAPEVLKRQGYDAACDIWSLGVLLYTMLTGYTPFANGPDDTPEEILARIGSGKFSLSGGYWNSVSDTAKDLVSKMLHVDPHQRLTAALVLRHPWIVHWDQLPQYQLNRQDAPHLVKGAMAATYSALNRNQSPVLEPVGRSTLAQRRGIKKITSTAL

Sequence of Tyrosine-protein kinase Yes (Homo sapiens) (P07947 2-543 limits assumed): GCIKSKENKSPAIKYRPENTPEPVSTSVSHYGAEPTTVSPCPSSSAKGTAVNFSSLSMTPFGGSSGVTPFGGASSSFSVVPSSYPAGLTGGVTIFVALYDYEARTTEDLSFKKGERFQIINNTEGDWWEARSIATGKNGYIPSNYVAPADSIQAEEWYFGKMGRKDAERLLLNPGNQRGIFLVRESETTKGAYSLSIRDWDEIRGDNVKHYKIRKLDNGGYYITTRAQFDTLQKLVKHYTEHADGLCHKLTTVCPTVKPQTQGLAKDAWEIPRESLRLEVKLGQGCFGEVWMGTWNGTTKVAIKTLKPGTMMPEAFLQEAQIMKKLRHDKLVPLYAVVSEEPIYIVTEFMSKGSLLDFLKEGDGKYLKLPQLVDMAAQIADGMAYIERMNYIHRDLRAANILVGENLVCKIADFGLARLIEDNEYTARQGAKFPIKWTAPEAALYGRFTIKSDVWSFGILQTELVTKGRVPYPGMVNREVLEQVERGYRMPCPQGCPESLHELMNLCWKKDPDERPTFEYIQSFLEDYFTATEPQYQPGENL
Sequence of Protein arginine N-methyltransferase 6 (Q96LA8 whole entry, looked up): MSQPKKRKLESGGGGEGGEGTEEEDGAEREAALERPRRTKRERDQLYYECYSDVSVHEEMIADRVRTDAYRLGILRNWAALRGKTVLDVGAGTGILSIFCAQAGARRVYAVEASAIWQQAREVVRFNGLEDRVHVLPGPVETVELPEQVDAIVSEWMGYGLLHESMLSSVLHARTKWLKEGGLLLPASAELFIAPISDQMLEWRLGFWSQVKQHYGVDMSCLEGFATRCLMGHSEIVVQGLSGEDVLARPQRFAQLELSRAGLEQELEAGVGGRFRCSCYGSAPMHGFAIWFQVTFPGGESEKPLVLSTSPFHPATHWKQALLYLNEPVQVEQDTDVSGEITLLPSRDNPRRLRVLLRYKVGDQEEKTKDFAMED
Sequence of Casein kinase I isoform gamma-2 (Homo sapiens) (P78368 whole entry, looked up, canonical isoform): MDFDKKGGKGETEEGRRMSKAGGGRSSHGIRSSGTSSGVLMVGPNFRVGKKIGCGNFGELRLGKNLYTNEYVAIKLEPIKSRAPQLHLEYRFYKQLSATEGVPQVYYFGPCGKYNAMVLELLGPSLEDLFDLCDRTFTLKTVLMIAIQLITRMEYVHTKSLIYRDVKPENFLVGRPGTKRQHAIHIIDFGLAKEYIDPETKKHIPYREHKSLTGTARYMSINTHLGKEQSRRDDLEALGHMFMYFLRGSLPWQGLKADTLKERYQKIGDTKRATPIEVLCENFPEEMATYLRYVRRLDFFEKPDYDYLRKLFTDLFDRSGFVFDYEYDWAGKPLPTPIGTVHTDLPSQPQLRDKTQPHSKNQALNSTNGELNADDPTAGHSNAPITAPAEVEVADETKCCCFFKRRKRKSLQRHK
Sequence of Ribosomal protein S6 kinase alpha-5 (Homo sapiens) (O75582 whole entry, looked up): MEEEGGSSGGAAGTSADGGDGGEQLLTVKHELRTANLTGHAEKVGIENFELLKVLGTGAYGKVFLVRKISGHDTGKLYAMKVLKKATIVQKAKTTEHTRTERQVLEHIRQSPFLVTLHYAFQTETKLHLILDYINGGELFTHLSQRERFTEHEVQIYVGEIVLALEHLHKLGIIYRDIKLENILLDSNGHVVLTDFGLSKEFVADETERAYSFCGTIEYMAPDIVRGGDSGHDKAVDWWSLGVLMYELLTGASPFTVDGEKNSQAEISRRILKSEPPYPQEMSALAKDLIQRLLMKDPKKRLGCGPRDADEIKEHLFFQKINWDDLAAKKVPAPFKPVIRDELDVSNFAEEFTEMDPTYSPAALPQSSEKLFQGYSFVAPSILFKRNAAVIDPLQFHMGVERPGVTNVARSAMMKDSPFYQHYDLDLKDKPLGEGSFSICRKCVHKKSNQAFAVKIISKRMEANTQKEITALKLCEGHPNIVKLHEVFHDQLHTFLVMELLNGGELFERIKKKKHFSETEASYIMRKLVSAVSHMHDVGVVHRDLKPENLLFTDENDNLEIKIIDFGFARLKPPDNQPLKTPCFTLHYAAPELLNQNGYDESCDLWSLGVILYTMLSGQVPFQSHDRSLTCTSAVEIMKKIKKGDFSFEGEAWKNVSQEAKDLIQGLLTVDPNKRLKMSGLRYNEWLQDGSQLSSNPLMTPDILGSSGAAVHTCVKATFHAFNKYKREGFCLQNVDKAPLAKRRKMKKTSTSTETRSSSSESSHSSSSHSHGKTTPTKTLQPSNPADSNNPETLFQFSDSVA

COCCN1CCC(c2cc(CN(C)C(=O)c3cccc(Oc4ccccc4)c3)ccn2)CC1
% activity ([1]; at 1 µM): 17% | % activity ([1]; at 10 µM): > 90%

COc1cc(N(C)c2ccnc3ccc(C(F)(F)F)cc23)cc(OC)c1OC
% binding [2]: 97%

O=C(NOC[C@H](O)CO)c1ccc(F)c(F)c1Nc1ccc(I)cc1F
% of control [3]: 95%

CC[C@@H]1[C@H](F)C(=O)N[C@@H]1COc1nccc2cc(C(N)=O)c(OC)cc12 [ZIMLOVISERTIB]
% of inhibition [4]: 56.9% | % of inhibition ([5]; at 0.01 µM): -8.5% | % of inhibition ([5]; at 0.04 µM): -0.2% | % of inhibition ([5]; at 0.2 µM): 0.7% | % of inhibition ([5]; at 1 µM): -11% | % of inhibition ([5]; at 5 µM): -13.3%

CNC(=O)Nc1ccc(-c2nc(N3CC4CCC(C3)O4)c3cnn(C4CCC5(CC4)OCCO5)c3n2)cc1
% of control [6]: 90%

Cc1cc(F)c(C(=O)Nc2cccc(-c3nncn3C(C)C)n2)cc1-n1cnc(C2CC2)c1
% of control [7]: 100% | % of control [8]: 98%
